Molecular target: Tyrosine-protein kinase JAK2 (Homo sapiens, UniProt O60674)
Assay: Inhibition of human JAK2 using poly(Glu:Tyr)(4:1) as substrate preincubated for 20 mins followed by [gamma33P]ATP addition measured after 120 mins by ion exchange filter paper method
Conditions: not given

Chain of Tyrosine-protein kinase JAK2 (O60674 whole entry): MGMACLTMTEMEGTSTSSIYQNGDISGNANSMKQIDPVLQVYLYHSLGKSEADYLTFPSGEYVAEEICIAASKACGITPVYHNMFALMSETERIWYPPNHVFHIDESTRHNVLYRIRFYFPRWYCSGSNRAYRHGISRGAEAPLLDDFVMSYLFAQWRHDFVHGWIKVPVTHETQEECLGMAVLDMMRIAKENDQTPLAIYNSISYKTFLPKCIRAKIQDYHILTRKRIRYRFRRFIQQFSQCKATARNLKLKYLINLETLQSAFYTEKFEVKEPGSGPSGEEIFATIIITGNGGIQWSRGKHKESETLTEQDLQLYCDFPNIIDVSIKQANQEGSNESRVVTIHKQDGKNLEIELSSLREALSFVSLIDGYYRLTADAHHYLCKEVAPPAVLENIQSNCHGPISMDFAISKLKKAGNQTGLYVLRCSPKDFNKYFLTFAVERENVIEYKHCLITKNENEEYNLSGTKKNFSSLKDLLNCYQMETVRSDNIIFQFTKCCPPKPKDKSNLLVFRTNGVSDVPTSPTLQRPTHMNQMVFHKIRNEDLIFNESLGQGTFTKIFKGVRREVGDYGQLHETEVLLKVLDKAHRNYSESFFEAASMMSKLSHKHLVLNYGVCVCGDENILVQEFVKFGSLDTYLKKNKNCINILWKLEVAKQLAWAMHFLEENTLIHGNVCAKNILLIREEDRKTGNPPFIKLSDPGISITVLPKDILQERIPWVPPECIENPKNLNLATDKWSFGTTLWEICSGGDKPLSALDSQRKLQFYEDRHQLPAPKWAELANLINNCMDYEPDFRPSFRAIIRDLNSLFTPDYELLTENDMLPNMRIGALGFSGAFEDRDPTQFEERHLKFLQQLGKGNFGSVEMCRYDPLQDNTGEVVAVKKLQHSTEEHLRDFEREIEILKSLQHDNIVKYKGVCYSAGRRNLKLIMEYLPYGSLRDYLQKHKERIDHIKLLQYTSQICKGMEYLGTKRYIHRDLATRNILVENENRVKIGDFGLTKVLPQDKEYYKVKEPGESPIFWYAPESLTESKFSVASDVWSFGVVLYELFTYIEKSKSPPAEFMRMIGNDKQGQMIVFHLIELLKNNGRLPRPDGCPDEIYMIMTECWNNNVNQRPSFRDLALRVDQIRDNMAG

IC50 [µM] | Compound
0.0034 | CC(=O)Nc1ccc(-c2ccnc(Nc3cccc(OCCCCCC(=O)NO)c3)n2)cc1

Molecular target: Histone deacetylase 1 (Homo sapiens, UniProt Q13547)
Assay: Inhibition of HDAC1 (unknown origin) using Arg-His-Lys-Lys(Ac) as substrate preincubated with enzyme followed by substrate addition for 2 hrs and measured for 1.5 hrs at 15 mins time interval by fluorescence assay
Conditions: not given

Chain of Histone deacetylase 1 (Q13547 whole entry): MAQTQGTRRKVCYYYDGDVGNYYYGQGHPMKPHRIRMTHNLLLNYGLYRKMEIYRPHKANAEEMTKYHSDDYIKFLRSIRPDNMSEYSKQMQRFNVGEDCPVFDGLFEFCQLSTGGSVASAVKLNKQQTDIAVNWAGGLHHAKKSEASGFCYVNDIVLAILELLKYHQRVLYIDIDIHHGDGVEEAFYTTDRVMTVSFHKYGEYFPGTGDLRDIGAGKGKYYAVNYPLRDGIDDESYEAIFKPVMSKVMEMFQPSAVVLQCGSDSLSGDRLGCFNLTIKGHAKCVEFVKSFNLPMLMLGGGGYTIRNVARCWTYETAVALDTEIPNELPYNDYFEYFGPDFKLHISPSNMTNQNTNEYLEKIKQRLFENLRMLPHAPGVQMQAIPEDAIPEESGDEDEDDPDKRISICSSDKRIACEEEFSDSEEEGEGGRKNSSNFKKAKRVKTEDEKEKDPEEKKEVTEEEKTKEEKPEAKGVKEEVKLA

IC50 [µM] | Compound
0.637 | CC(=O)Nc1ccc(-c2ccnc(Nc3cccc(OCCCCCC(=O)NO)c3)n2)cc1

Molecular target: T1, Protein deacetylase HDAC6 (Homo sapiens, UniProt Q9UBN7)
T1 sequence (Q9UBN7 whole entry): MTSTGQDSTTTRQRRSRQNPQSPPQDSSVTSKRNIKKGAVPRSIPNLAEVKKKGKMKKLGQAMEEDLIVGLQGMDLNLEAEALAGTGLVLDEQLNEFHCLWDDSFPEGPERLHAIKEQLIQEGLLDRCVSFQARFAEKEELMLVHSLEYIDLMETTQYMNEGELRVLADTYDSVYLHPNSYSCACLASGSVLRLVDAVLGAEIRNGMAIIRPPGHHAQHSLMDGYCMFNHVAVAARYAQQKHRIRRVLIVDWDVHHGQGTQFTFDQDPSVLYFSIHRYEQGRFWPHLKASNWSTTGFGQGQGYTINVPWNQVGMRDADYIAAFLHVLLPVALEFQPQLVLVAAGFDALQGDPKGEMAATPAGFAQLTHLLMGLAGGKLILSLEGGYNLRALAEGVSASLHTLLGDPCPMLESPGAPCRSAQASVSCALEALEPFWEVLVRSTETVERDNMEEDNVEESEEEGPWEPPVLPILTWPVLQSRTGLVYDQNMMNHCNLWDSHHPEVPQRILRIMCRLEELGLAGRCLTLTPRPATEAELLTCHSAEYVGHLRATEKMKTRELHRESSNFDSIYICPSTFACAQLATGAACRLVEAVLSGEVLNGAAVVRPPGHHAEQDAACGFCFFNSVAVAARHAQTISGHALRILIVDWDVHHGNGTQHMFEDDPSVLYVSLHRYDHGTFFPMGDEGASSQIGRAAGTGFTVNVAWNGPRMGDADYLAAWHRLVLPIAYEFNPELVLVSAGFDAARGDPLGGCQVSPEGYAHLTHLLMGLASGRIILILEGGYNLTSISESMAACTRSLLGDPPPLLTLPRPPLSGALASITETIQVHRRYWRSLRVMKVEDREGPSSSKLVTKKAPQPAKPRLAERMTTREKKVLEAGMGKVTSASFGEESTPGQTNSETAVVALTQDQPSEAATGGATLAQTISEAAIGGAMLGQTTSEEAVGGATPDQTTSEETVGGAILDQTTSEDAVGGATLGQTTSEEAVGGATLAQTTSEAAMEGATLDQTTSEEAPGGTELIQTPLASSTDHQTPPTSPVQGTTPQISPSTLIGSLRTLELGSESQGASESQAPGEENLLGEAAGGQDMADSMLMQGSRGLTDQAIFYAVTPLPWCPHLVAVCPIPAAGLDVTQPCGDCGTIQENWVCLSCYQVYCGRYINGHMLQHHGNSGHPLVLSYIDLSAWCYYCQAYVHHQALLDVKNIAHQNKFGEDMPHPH
Assay: Inhibition of HDAC6 (unknown origin) using Arg-His-Lys-Lys(Ac) as substrate preincubated with enzyme followed by substrate addition for 2 hrs and measured for 1.5 hrs at 15 mins time interval by fluorescence assay
Conditions: not given

IC50 [µM] | Compound
0.0024 | CC(=O)Nc1ccc(-c2ccnc(Nc3cccc(OCCCCCC(=O)NO)c3)n2)cc1

Tested on: HCT-116
Assay: Antiproliferative activity against human HCT116 cells after 72 hrs by MTT assay
Type: functional, cell-based
Conditions: HCT-116, 72 h

IC50 [µM] | Compound
0.79 | CC(=O)Nc1ccc(-c2ccnc(Nc3cccc(OCCCCCC(=O)NO)c3)n2)cc1

Tested on: MDA-MB-231
Assay: Antiproliferative activity against human MDA-MB-231 cells after 72 hrs by MTT assay
Type: functional, cell-based
Conditions: MDA-MB-231, 72 h

IC50 [µM] | Compound
1.24 | CC(=O)Nc1ccc(-c2ccnc(Nc3cccc(OCCCCCC(=O)NO)c3)n2)cc1

Tested on: MCF7
Assay: Antiproliferative activity against human MCF7 cells after 72 hrs by MTT assay
Type: functional, cell-based
Conditions: MCF7, 72 h

IC50 [µM] | Compound
2.55 | CC(=O)Nc1ccc(-c2ccnc(Nc3cccc(OCCCCCC(=O)NO)c3)n2)cc1

Tested on: PC-3
Assay: Antiproliferative activity against human PC3 cells after 72 hrs by MTT assay
Type: functional, cell-based
Conditions: PC-3, 72 h

IC50 [µM] | Compound
1.66 | CC(=O)Nc1ccc(-c2ccnc(Nc3cccc(OCCCCCC(=O)NO)c3)n2)cc1

Tested on: not listed separately
Assay: Antiproliferative activity against human AC10 cells after 72 hrs by MTT assay
Type: cell-based
Conditions: not given

Compound | CC50 at 72 h [µM]
CC(=O)Nc1ccc(-c2ccnc(Nc3cccc(OCCCCCC(=O)NO)c3)n2)cc1 | 2.93

Tested on: not listed separately
Assay: Antiproliferative activity against mouse TAMH cells after 72 hrs by MTT assay
Type: cell-based
Conditions: not given

Compound | CC50 at 72 h [µM]
CC(=O)Nc1ccc(-c2ccnc(Nc3cccc(OCCCCCC(=O)NO)c3)n2)cc1 | 8.86

Tested on: not listed separately
Assay: Selectivity index, ratio of CC50 for human AC10 cells to IC50 for human HCT116 cells
Type: toxicity
Conditions: AC10 cells (CC50) and HCT116 cells (IC50)

Compound | selectivity ratio
CC(=O)Nc1ccc(-c2ccnc(Nc3cccc(OCCCCCC(=O)NO)c3)n2)cc1 | 3.71

Tested on: not listed separately
Assay: Selectivity index, ratio of CC50 for mouse TAMH cells to IC50 for human HCT116 cells
Type: toxicity
Conditions: TAMH cells (CC50) and HCT116 cells (IC50)

Compound | selectivity ratio
CC(=O)Nc1ccc(-c2ccnc(Nc3cccc(OCCCCCC(=O)NO)c3)n2)cc1 | 11.2

Tested on: not listed separately
Assay: Selectivity index, ratio of CC50 for human AC10 cells to IC50 for human MDA-MB-231 cells
Type: toxicity
Conditions: AC10 cells (CC50) and MDA-MB-231 cells (IC50)

Compound | selectivity ratio
CC(=O)Nc1ccc(-c2ccnc(Nc3cccc(OCCCCCC(=O)NO)c3)n2)cc1 | 2.36

Tested on: not listed separately
Assay: Selectivity index, ratio of CC50 for mouse TAMH cells to IC50 for human MDA-MB-231 cells
Type: toxicity
Conditions: TAMH cells (CC50) and MDA-MB-231 cells (IC50)

Compound | selectivity ratio
CC(=O)Nc1ccc(-c2ccnc(Nc3cccc(OCCCCCC(=O)NO)c3)n2)cc1 | 7.15

Tested on: not listed separately
Assay: Selectivity index, ratio of CC50 for human AC10 cells to IC50 for human MCF7 cells
Type: toxicity
Conditions: AC10 cells (CC50) and MCF7 cells (IC50)

Compound | selectivity ratio
CC(=O)Nc1ccc(-c2ccnc(Nc3cccc(OCCCCCC(=O)NO)c3)n2)cc1 | 1.15

Tested on: not listed separately
Assay: Selectivity index, ratio of CC50 for mouse TAMH cells to IC50 for human MCF7 cells
Type: toxicity
Conditions: TAMH cells (CC50) and MCF7 cells (IC50)

Compound | selectivity ratio
CC(=O)Nc1ccc(-c2ccnc(Nc3cccc(OCCCCCC(=O)NO)c3)n2)cc1 | 3.47

Tested on: not listed separately
Assay: Selectivity index, ratio of CC50 for human AC10 cells to IC50 for human PC3 cells
Type: toxicity
Conditions: AC10 cells (CC50) and PC3 cells (IC50)

Compound | selectivity ratio
CC(=O)Nc1ccc(-c2ccnc(Nc3cccc(OCCCCCC(=O)NO)c3)n2)cc1 | 1.77

Tested on: not listed separately
Assay: Selectivity index, ratio of CC50 for mouse TAMH cells to IC50 for human PC3 cells
Type: toxicity
Conditions: TAMH cells (CC50) and PC3 cells (IC50)

Compound | selectivity ratio
CC(=O)Nc1ccc(-c2ccnc(Nc3cccc(OCCCCCC(=O)NO)c3)n2)cc1 | 5.34

Tested on: HEL 92.1.7
Assay: cells
Type: functional, cell-based
Conditions: Homo sapiens, HEL 92.1.7, 72 h
Description: Antiproliferative activity against human HEL 92.1.7 cells after 72 hrs by MTT assay

IC50 [µM] | Compound
1.83 | CC(=O)Nc1ccc(-c2ccnc(Nc3cccc(OCCCCCC(=O)NO)c3)n2)cc1

Tested on: Jurkat
Assay: Antiproliferative activity against human Jurkat cells after 72 hrs by MTT assay
Type: functional, cell-based
Conditions: not given

IC50 [µM] | Compound
1.19 | CC(=O)Nc1ccc(-c2ccnc(Nc3cccc(OCCCCCC(=O)NO)c3)n2)cc1

Tested on: KMS-12-BM
Assay: Antiproliferative activity against human KMS-12-BM cells after 72 hrs by MTT assay
Type: functional, cell-based
Conditions: not given

Compound | IC50 [µM]
CC(=O)Nc1ccc(-c2ccnc(Nc3cccc(OCCCCCC(=O)NO)c3)n2)cc1 | 0.2

Tested on: not listed separately
Assay: Antiproliferative activity against human XG6 cells after 72 hrs by MTT assay
Type: functional, cell-based
Conditions: XG6, 72 h

Compound | IC50 [µM]
CC(=O)Nc1ccc(-c2ccnc(Nc3cccc(OCCCCCC(=O)NO)c3)n2)cc1 | 3.7

Tested on: not listed separately
Assay: Selectivity index, ratio of CC50 for human AC10 cells to IC50 for human HEL 92.1.7 cells
Type: toxicity
Conditions: AC10 cells (CC50) and HEL 92.1.7 cells (IC50)

Compound | selectivity ratio
CC(=O)Nc1ccc(-c2ccnc(Nc3cccc(OCCCCCC(=O)NO)c3)n2)cc1 | 1.61

Tested on: not listed separately
Assay: Selectivity index, ratio of CC50 for mouse TAMH cells to IC50 for human HEL 92.1.7 cells
Type: toxicity
Conditions: TAMH cells (CC50) and HEL 92.1.7 cells (IC50)

Compound | selectivity ratio
CC(=O)Nc1ccc(-c2ccnc(Nc3cccc(OCCCCCC(=O)NO)c3)n2)cc1 | 4.85

Tested on: not listed separately
Assay: Selectivity index, ratio of CC50 for human AC10 cells to IC50 for human Jurkat cells
Type: toxicity
Conditions: AC10 cells (CC50) and Jurkat cells (IC50)

Compound | selectivity ratio
CC(=O)Nc1ccc(-c2ccnc(Nc3cccc(OCCCCCC(=O)NO)c3)n2)cc1 | 1.35

Tested on: not listed separately
Assay: Selectivity index, ratio of CC50 for mouse TAMH cells to IC50 for human Jurkat cells
Type: toxicity
Conditions: TAMH cells (CC50) and Jurkat cells (IC50)

Compound | selectivity ratio
CC(=O)Nc1ccc(-c2ccnc(Nc3cccc(OCCCCCC(=O)NO)c3)n2)cc1 | 7.45

Tested on: not listed separately
Assay: Selectivity index, ratio of CC50 for human AC10 cells to IC50 for human KMS-12-BM cells
Type: toxicity
Conditions: AC10 cells (CC50) and KMS-12-BM cells (IC50)

Compound | selectivity ratio
CC(=O)Nc1ccc(-c2ccnc(Nc3cccc(OCCCCCC(=O)NO)c3)n2)cc1 | 14.7

Tested on: not listed separately
Assay: Selectivity index, ratio of CC50 for mouse TAMH cells to IC50 for human KMS-12-BM cells
Type: toxicity
Conditions: TAMH cells (CC50) and KMS-12-BM cells (IC50)

Compound | selectivity ratio
CC(=O)Nc1ccc(-c2ccnc(Nc3cccc(OCCCCCC(=O)NO)c3)n2)cc1 | 44.3

Tested on: not listed separately
Assay: Selectivity index, ratio of CC50 for human AC10 cells to IC50 for human XG6 cells
Type: toxicity
Conditions: AC10 cells (CC50) and XG6 cells (IC50)

Compound | selectivity ratio
CC(=O)Nc1ccc(-c2ccnc(Nc3cccc(OCCCCCC(=O)NO)c3)n2)cc1 | 0.79

Tested on: not listed separately
Assay: Selectivity index, ratio of CC50 for mouse TAMH cells to IC50 for human XG6 cells
Type: toxicity
Conditions: TAMH cells (CC50) and XG6 cells (IC50)

Compound | selectivity ratio
CC(=O)Nc1ccc(-c2ccnc(Nc3cccc(OCCCCCC(=O)NO)c3)n2)cc1 | 2.39
